Reference: patent publication US9481734B2, “Immunoglobulin cleavage fragments and disease indicators and compositions for detecting and binding such” (Janssen Biotech, Inc., priority 2007, dated 2016)
No end group written: not given here. *: point of attachment. Biotin = O=C1N[C@H]2[C@H](CS[C@H]2CCCCC(=O)*)N1

Columns and labels:
[1] = test system: Fab fragment of the 2095-2 antibody; conditions: Biacore, 25° C., 1:1 (Langmuir) model
Protocol: The specificity of binding was further examined using a Fab fragment of the 2095-2 antibody using a surface plasmon resonance platform (Biacore). Briefly, the Fab was immobilized to a CM5 sensor chip in a Biacore 2000 at three different surface densities (8500, 1650, and 350 RU) using standard NHS/EDC coupling. The running buffer contained 10 mM HEPES pH 7.4, 150 mM NaCl, and 0.01% Tween-20. Data were collected at 25° C.
Three N-terminally biotinylated peptides were tested for binding of to the immobilized Fab: WT, representing the expected sequence of a peptide fragment from a human IgG1 cleavage site after cleavage by the Streptococcus pyogenes IdeS protease; E233A, representing a variant of having a single alanine substitution at the amino acid residue four positions upstream of the C-terminus; and L234A, a variant having a single alanine substitution at the amino acid residue three positions upstream from the C-terminus. The peptides were modified by substituting serine for cysteine to make them compatible with the coupling chemistry and preserve the monomeric structure.
Peptides Wild type and E233A were tested in a 3-fold dilution series using 588 nM and 2.9 uM as the highest concentration, respectively. Peptide L234A was tested at 14.7 uM as the highest concentration in a 2-fold dilution series. Each peptide concentration series was tested in triplicate over the three different density Fab surfaces. The association and dissociation were monitored for 1 minute. Surfaces were regenerated with a 12 second injection of 1/500 dilution of phosphoric acid.

[2] = test system: S. aureus (ATCC 29213); assay: Wiffle ball (tissue cage) S. aureus infection model in rabbits; assay type: in vivo; conditions: day 2 after inoculation with 6.2 log 10 CFUs, immunized rabbits
Excerpt: In order to test the capacity of cleavage site specific antibodies to rescue cleaved IgGs in vivo, a model for bacterial infection employing a “tissue cage” (Fernandez J A, et. al. (1997) Antimicrob. Agents Chemother. 43(3):667-671) was adopted. In this system, a wiffle ball is surgically implanted subcutaneously in the dorsal cervical area. The model allows the infectious agents to be localized within an easily accessible fluid compartment, a tissue pouch, and has been used to assess the efficacy of antibiotics against bacteria.
In the final phase of the study, the immunized and non-immunized rabbits were inoculated with 6.2 log 10 colony forming units (CFUs) of S. aureus (ATCC 29213) directly into the wiffle-ball compartments.
The bacterial counts and test subject viability were monitored over the course of two weeks for bacterial counts and survival. The data shown in FIG. 13 indicate that during the first week of the study, the average bacterial counts for control animals were several logs higher than cleavage site specific vaccinated animals. For example, on day 2 the control had 7.2 log10 CFU/ml wiffle ball fluid while the immunized group had 5.2 log10 CFU/ml wiffle ball fluid.

[3] = test system: human IgG1; assay: Proteinase digestion of purified IgG1, Agilent biosizing; assay type: biochemical; conditions: for disappearance of intact IgG (160,000 Da): Mab1, 1% w/w enzyme, 37° C.
Protocol: A purified monoclonal antibody comprising a human IgG heavy chain was contacted with the proteases described and sampling was conducted over various durations of contact. Fragmentation in the samples was evaluated using the Agilent microfluidics “lab-on-a-chip” technology for in vitro biosizing (Goetz H et al. Biochemical and Biophysical Methods 60; 281-293, 2004).
Proteinase digestions of purified IgGs were carried out at pH 7.5 in phosphate-buffered saline (PBS) or, for the metalloproteinases, in Tris-buffered saline buffer at 37° C. Calcium chloride was included in the metalloproteinase reactions at 1 mM for MMP-12 and 10 mM for MMP-3; otherwise no additives were used. Antibody concentrations were typically 1 or 2 mg/mL and reactions were initiated by addition of enzyme to a 1% (w/w) ratio to IgG. Aliquots (10-20 μL) were removed at indicated times and the reactions were stopped either by adjustment to 20 mM EDTA (metalloproteinase incubations) or to 1 mM iodoacetamide (cysteine proteinases) or by rapid freezing.
The major proteolytic cleavage positions in the IgG1 hinge were identified for enzyme-generated fragments by N-terminal sequencing of the purified Fc fragment (MMP-3 and MMP-12) and/or high resolution mass spectrometric analyses of the purified Fab (neutrophil elastase, plasmin) and F(ab′)2 (cathepsin G, glutamyl endopeptidase and IdeS) fragments. Fragmentation was evaluated using the Agilent microfluidics “lab-on-a-chip” technology.

[4] = test system: platelet surface IIb/III3 receptors; assay: Platelet aggregation assay; assay type: cell-based; conditions: 5 μM adenosine diphosphate (ADP), compared with intact c7E3 IgG
Protocol: c7E3 inhibits platelet aggregation by binding to platelet surface IIb/III3 receptors—thereby blocking the ability of fibrinogen to bind to the receptors on activated platelets and to clump them together. The respective inhibitory profiles of intact and single-cleaved c7E3 IgG were tested in a platelet aggregation assay. Platelet aggregation is measured as an increase of light transmission through a platelet suspension after activation with a physiological agonist. The inhibition is compared to control aggregation to 5 μM adenosine diphosphate (ADP). The percent inhibition was calculated as: control aggregation−test aggregation×100%, divided by control aggregation.

[5] = test system: platelets; assay: Restoration of function study in dogs, platelet counts; assay type: in vivo; conditions: c7E3 variants 0.05 mg/kg, mAb 2095-2 0.5 mg/kg after 10 min delay, groups of 3 animals
Protocol: To be consistent with the prior experiments, the variants of c7E3 were all administered at the 0.05 mg/kg dose. The unique aspect of the experiment (groups 6 and 7) involves the infusion of the first targeting mAb followed by the cleavage site specific mAb after a 10 minute delay. The cleavage site specific IdeS cleavage site mAb, 2095-2, was administered at 0.5 mg/kg; 10-fold higher than the dose used for all of the c7E3 variants. The higher dose was chosen in order to maximize the complexation of cleavage site specific mAb with platelet-bound c7E3 variants. All mAbs were delivered by slow infusion over a 20 minute period. Platelet counts were monitored over a 96-hour period. The platelet counts were normalized to the pre-dose count within each animal for clarity of presentation and to minimize the normal variability in numerical platelet counts in these small 3-animal groups.

[6] = test system: platelets; assay: Test infusions of c7E3 IgG in dogs, platelet depletion; assay type: in vivo; conditions: 0.05 mg/kg dose, calculated
Excerpt: First, the c7E3 antibody antigen binding and platelet depletion parameters were established in dogs.

[7] = test system: platelets; assay: Platelet counts in dogs, intact versus single-cleaved c7E3 IgG; assay type: in vivo; conditions: 0.05 mg/kg
Protocol: c7E3 IgG and c7E3 IgG single-cleaved by IdeS protease were also compared in vivo. Three groups of 5 animals received either saline control, intact c7E3 IgG (0.05 mg/kg) or c7E3 single-cleaved IgG (0.05 mg/kg). Platelet counts were monitored at baseline and at 2, 24, 48, 72 and 96 hours post-administration. Limiting the study to 5 days minimized the likelihood of anti-c7E3 immune responses that might confound the interpretation of the results. The results are presented in FIG. 3 as the mean platelet count±SD for each animal group at each time point. The extent of the error bars connotes the normal variability of platelet counts in different animals (for example, the predose counts for the 5 animals in the single-cleaved IgG treatment group were 175,000, 355,000, 305,000, 276,000 and 334,000 per μL, respectively).

Chain of human IgG1 (P01857 99-224 limits assumed): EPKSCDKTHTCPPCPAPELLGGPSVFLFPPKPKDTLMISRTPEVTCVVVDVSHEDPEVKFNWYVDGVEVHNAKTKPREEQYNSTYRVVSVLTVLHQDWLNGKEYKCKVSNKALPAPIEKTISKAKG

Biotin-TSPPSPAPALLG [E233A]
ka(M-1s-1) × 10^−5 [1]: 7.29 ± 0.03 M-1s-1 × 10^−5 | kd [1]: 0.1070 ± 0.04 s⁻¹

Biotin-TSPPSPAPEALG [L234A]
ka(M-1s-1) × 10^−5 [1]: 1.24 ± 0.01 M-1s-1 × 10^−5 | kd [1]: 1.03 ± 0.01 s⁻¹

Biotin-TSPPSPAPELLG [Wt]
ka(M-1s-1) × 10^−5 [1]: 5.22 ± 0.04 M-1s-1 × 10^−5 | kd [1]: 0.00443 ± 0.02 s⁻¹

C-T-S-P-P-S-P-S-P-A-P-E (CTSPPSPSPAPE; also: conjugated to KLH) [GluV8-cleavage site peptide analogue]
bacterial count [2]: 5.2 log10 CFU/ml wiffle ball fluid

Glutamyl endopeptidase I (Glu V8 protease): Staph. aureus serine endopeptidase
disappearance of intact IgG (160,000 Da) [3]: several hours

Stromelysin (MMP-3): human metalloendopeptidase
disappearance of intact IgG (160,000 Da) [3]: several hours

Tryptase: human serine endopeptidase
Major Product ([3]; human IgG1, None denotes no detectable cleavage in 24 hours): None

c7E3 sc IgG: c7E3 IgG single-cleaved by IdeS protease
binding/inhibition of platelet aggregation after single lower hinge cleavage [4]: no loss of binding/inhibition | effect on platelet numbers [5]: without effect on platelet numbers

B1: c7E3 IgG: anti-platelet integrin (αIIbβIIIa) murine-human IgG1 chimeric antibody (antibody, chains of the INN, looked up, V domains shown)
VH: EVQLQQSGTVLARPGASVKMSCEASGYTFTNYWMHWVKQRPGQGLEWIGAIYPGNSDTSYIQKFKGKAKLTAVTSTTSVYMELSSLTNEDSAVYYCTLYDGYYVFAYWGQGTLVTVSA
VL: EIVLTQSPVTLSVTPGDSVSLSCRASRDISNNLHWFQQTSHESPRLLIKYASQSMSGIPSRFSGSGSGTDFTLSINSVETEDFGMYFCQQTNSWPYTFGGGTKLEIK
modifications: IgG1
notes: anti-platelet integrin (αIIbβIIIa) murine-human IgG1 chimeric antibody
αIIbβ3 receptor blockade [6]: about 5% | nadir of platelet numbers [7]: 24 h | recovery of platelet counts ([7]; by 96 hours): approximately 50 % of the pre-dose level | effect on platelet numbers ([7]; groups of 5 animals, 96-hour monitoring): substantial decrease of platelet numbers

B2: c7E3 F(ab′)2: F(ab′)2 of c7E3 prepared using the bacterial enzyme IdeS (antibody, chains of the INN, looked up, V domains shown)
VH: EVQLQQSGTVLARPGASVKMSCEASGYTFTNYWMHWVKQRPGQGLEWIGAIYPGNSDTSYIQKFKGKAKLTAVTSTTSVYMELSSLTNEDSAVYYCTLYDGYYVFAYWGQGTLVTVSA
VL: EIVLTQSPVTLSVTPGDSVSLSCRASRDISNNLHWFQQTSHESPRLLIKYASQSMSGIPSRFSGSGSGTDFTLSINSVETEDFGMYFCQQTNSWPYTFGGGTKLEIK
modifications: F(ab')2 IdeS-generated
notes: F(ab′)2 of c7E3 prepared using the bacterial enzyme IdeS
effect on platelet numbers [5]: without effect on platelet numbers
